Assay results taken from patent publication US20220096450A1, “Compounds and Methods for Treating or Preventing Heart Failure” (DREXEL UNIVERSITY, priority 2019, published 2022).

Legend:
[1] = system: mitochondrial CoQ-dependent respiratory complex I; assay: Biochemical selectivity assay, respiratory complex I; parameters: species or system mouse; conditions: highest concentration tested 11 μM
Experimental: (§1) Inhibitor selectivity was assessed using mouse muscle homogenate preparations that contain disrupted mitochondrial membranes, a feature that makes substrates accessible to each of the membrane-bound respiratory complexes. Spectrophotometric assays for each complex are conducted in the presence or absence of a target-specific inhibitor (FIG. 9) to correct for nonspecific substrate oxidation, as previously described (Spinazzi et al., 2012, Nature Protocols 7: 1235-1246). Thus, the activity of complex I is determined by monitoring the oxidation of NADH in the absence or presence of rotenone. Complex III activity is measured based on the rate of cytochrome C reduction observed in the presence or absence of antimycin A. The reaction catalyzed by complex II produces decylubiquinol (decylCoQH2), which rapidly reduces DCIP.

[2] = Cell Counting Kit-8 cytotoxicity assay in H9C2 cells; assay type: cell-based; conditions: rat
Experimental: H9C2 cells, a rat ventricular cardiomyoblast cell line were obtained from ATCC (CRL-1446) and maintained in Dulbecco's modified Eagle's medium (DMEM) containing 10% FBS and 1× GlutaMAX. For hypertrophy studies, the cells were plated onto 4-well glass chamber slides precoated with poly-D-lysine. The maintenance medium was aspirated after 24 h and the cells were serum-starved overnight in DMEM containing 1% FBS and 1× GlutaMAX and then incubated for 48 h in fresh serum-starved medium containing isoproterenol, as indicated.
Cytotoxicity assays were conducted under the same conditions used for hypertrophy assays with NVCMs or H9C2 cells, as described elsewhere herein.

[3] = system: TAC mouse model of heart failure; assay type: in vivo; conditions: 10 mg/kg i.p. daily
Experimental: Male C57BL/6J mice 10-14 weeks of age were purchased from The Jackson Laboratory (Bar Harbor, Me.).
Mice were anesthetized with isofluran or ketamine/xylazine. The mice were orally intubated and placed on a Harvard volume-cycled rodent ventilator to maintain respiration during surgery. The TAC procedure was performed by tying the aortic arch between the brachiocephalic trunk (innominate artery) and the left carotid artery against a 27-gauge needle spacer with a 7-0 silk suture, followed by immediate removal of the needle. For sham surgeries, thoracotomy was performed and the aorta was surgically exposed without any further intervention. Following surgical closure of the chest, the animals were allowed to recover from anesthesia, followed by post-operative care. The animals were euthanized 12 weeks post-surgery; hearts were harvested, weighed and tibia lengths were measured.
Sterile stock solutions of vehicle only [NMP:PG:kleptose in water (10:40:50)] were similarly prepared each week and stored in aliquots at 4° C. until use. […] (to minimize precipitation), and then cooled to room temperature.
Transthoracic echocardiography was used to noninvasively quantify cardiac structural and functional changes during the progression to heart failure in the TAC mouse model. Measurements were conducted with animals under 1-3% isoflurane anesthesia using a Vevo® 2100 Imaging System with a high-frequency (18-38 MHz) probe (VisualSonics MS400) (Kohut et al., 2016, J. Cardiovasc. Ultrasound 24: 229-238). Echocardiography using color Doppler ultrasound was performed at 1 week after surgery to confirm the aortic constriction. The aortic constriction was further confirmed by conducting color Doppler and pulsed wave Dopier measurements at 12 weeks after surgery. Baseline echocardiography evaluations were performed 1-2 days prior to surgery. For these studies, parasternal long and short axis images were obtained in two-dimensional B-mode and M-mode. Additional images were obtained at regular intervals (2, 4, 6, 8, 10, 12 weeks) after surgery. To evaluate cardiac structure and function, the echocardiographic data were used to determine left ventricle (LV) end-diastolic diameter, LV end-systolic diameter, LV end-diasolic volume, LV ejection fraction, LV fractional shortening, and LV mass.
Mouse hearts were collected at 12 weeks post surgery, fixed in 10% buffered formalin, and then embedded in paraffin blocks, which were used to prepare serial 4 μm thick heart sections. To detect interstitial fibrosis, heart sections were stained with Masson's trichrome which colors collagen blue and cytoplasm red. Digital images of the slides were captured at 160× magnification using a Leica DFC290 digital camera in conjunction with a Leica MZ16F microscope. […] For each heart, 2 sections taken from the mid-ventricle were analyzed. […] Images were acquired using a FV3000 Olympus Confocal Microscope and analyzed in a blinded manner by two observers. Five field views per mid-ventricle heart section were analyzed by measuring the cross-sectional area of 100 cells per field view using ImageJ. A total of 500 cells per heart section were measured.
All data are expressed as means±SEM. Statistical significance was evaluated for comparison between 3 or more means using one-way ANOVA with Tukey-Kramer post hoc test. For the echcocardiography data, obtained prior to and at two-week intervals after surgery, statistical significance was evaluated using two-way repeated ANOVA with Bonferroni post hoc test.

[4] = system: mitochondrial CoQ-dependent respiratory complex III; assay: Biochemical selectivity assay, respiratory complex III; parameters: species or system mouse; conditions: highest concentration tested 11 μM
Experimental: as §1

[5] = molecular target: T1, mitochondrial CoQ-dependent respiratory complex II (Mus musculus, UniProt Q8K2B3+Q9CQA3+Q9CXV1+Q9CZB0); assay: Biochemical selectivity assay, respiratory complex II; conditions: highest concentration tested 11 μM
T1 construct: mouse muscle homogenate preparations that contain disrupted mitochondrial membranes; from tissue; host or cells: mouse muscle homogenate
Experimental: as §1, with “DCIP. The activity of […] is determined by monitoring DCIP reduction in the presence and absence of 2-thenoyltrifluoroacetone (TTFA).” for “DCIP.”

[6] = echocardiography, TAC mice, 12 weeks

T1 sequence (Q8K2B3 43-664): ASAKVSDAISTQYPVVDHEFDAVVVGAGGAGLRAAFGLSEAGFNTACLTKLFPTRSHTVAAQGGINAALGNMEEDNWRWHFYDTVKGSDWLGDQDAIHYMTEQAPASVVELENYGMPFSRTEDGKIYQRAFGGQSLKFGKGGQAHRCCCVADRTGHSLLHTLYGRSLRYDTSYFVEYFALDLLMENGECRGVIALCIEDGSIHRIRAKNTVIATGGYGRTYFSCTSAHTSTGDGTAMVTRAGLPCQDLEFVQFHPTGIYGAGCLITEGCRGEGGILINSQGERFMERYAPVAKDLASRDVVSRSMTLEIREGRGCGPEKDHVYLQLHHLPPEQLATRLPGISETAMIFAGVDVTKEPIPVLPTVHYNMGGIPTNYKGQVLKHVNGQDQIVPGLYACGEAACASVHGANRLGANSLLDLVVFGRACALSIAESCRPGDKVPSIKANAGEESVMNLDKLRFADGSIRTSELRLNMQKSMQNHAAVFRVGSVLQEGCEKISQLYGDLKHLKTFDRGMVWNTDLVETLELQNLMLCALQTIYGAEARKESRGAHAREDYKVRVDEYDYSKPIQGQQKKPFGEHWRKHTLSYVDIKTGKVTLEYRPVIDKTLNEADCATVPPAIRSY
T1 sequence (Q9CQA3 31-282): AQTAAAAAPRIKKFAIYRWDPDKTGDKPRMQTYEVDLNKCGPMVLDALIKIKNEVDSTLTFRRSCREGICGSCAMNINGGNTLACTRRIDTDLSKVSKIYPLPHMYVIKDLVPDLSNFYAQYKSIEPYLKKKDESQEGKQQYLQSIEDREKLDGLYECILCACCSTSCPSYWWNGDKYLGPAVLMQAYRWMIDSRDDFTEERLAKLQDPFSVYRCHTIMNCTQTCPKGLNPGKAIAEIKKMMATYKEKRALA
T1 sequence (Q9CZB0 30-169): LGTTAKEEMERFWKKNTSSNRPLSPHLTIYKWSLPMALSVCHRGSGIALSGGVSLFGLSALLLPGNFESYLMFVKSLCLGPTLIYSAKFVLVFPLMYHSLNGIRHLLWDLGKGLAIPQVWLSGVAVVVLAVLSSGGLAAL
T1 sequence (Q9CXV1 57-159): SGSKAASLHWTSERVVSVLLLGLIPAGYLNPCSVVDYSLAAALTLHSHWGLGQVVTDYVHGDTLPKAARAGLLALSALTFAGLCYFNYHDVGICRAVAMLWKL

COc1nc(-c2ncccc2C)cc(-c2ccc(N)cc2)c1C#N [FC9402, 4-(4-aminophenyl)-2-methoxy-6-(3-methylpyridin-2-yl)pyridine-3-carbonitrile]
inhibition of respiratory complex I [1]: did not inhibit
CC50 at 48 h [2]: 56 ± 10 µM
survival after 12 weeks ([3]; TAC mice): 100%
cardiac enlargement (gross morphology, heart weight to tibia length) ([3]; TAC mice, 12 weeks): prevented the TAC-induced cardiac enlargement
left ventricle function (ejection fraction, fractional shortening) [3, 6]: preserved left ventricle function
left ventricle size (diameter, volume, mass) [3, 6]: maintained left ventricle size
mice that developed heart failure ([3]; lung weight/tibia length above 95% confidence interval of sham): 20%
inhibition of respiratory complex III [4]: did not inhibit
inhibition of respiratory complex II [5]: did not inhibit
